In brackets after ≈: the same amount, converted by molar mass.
Legend:
[1] = system: Plasmodium falciparum; experiment: Antimalarial activity against Plasmodium falciparum D6 as IC50 relative to artemisinin; format: functional
[2] = system: Plasmodium falciparum; experiment: Antimalarial activity against Plasmodium falciparum W2 clone as relative IC50 to artemisinin; format: functional
[3] = system: Plasmodium falciparum; experiment: Inhibitory activity against Plasmodium falciparum W2; format: functional, organism-based
[4] = system: Plasmodium falciparum; experiment: Inhibitory activity against Plasmodium falciparum D6; format: functional, organism-based

Row | Structure (SMILES) | IC50 ratio [1] | IC50 ratio [2] | IC50 [3] [ng/mL] | IC50 [4] [ng/mL]
1 | CC(=O)/C=C/N1C(=O)[C@H](C)[C@@H]2CC[C@@H](C)[C@@H]3CC[C@]4(C)OO[C@]32[C@H]1O4 | 2.54 | 1.25 |  | 
2 | COC(=O)/C=C/N1C(=O)[C@H](C)[C@@H]2CC[C@@H](C)[C@@H]3CC[C@]4(C)OO[C@]32[C@H]1O4 | 2 | 1.2 |  | 
3 | C[C@@H]1CC[C@H]2[C@@H](C)C(=O)N(/C=C/C(=O)N(C)C)[C@@H]3O[C@]4(C)CC[C@@H]1[C@@]23OO4 | 0.39 | 0.35 |  | 
4 | C[C@@H]1CC[C@H]2[C@@H](C)C(=O)O[C@@H]3O[C@@]4(C)CC[C@@H]1[C@]32OO4 [ARTEMISININ] |  |  | 1.15 (≈ 4.07 nM) | 4.19 (≈ 14.8 nM)

— ChEMBL document CHEMBL1132500, “Structure and antimalarial activity of adducts of 11-azaartemisinin with conjugated terminal acetylenes” (Bioorg Med Chem Lett, 1999)
